From patent US20170107462A1, “ARRAY OF FABRIC TREATMENT PRODUCTS” (The Procter & Gamble Company, priority 2015, published 2017)

Experiment: Blocker Index (BI), expert graders on malodorous fabric swatches
Design: key: 0-3 malodor scale; 0 = clean untreated swatch
From the text: Blocker materials suitable for use in consumer products of the present invention are chosen for their ability to decrease malodor, while not interfering with perception of a fragrance. Material selection is done by assigning two indices to a test sample material from two reference scales in order to rank odor strengths. The two reference scales are the Fragrance Fidelity Index (FFI) scale and the Blocker Index (BI) scale. The FFI ranks the ability of the test sample material to impart a perceivable odor which could cause interference when combined with another fragrance and the BI ranks the ability of the test sample material to reduce malodor perception. The two methods for assigning the indices to a test sample on the FFI and the BI reference scales are given below.
The first step in the method for assigning a BI to a test sample material on the BI reference scale is to create the BI reference swatches. […] Fabric swatches for this test are white knit polycotton (4 inch×4 inch) swatches from EMC ordered as PC 50/50. The supplier is instructed to strip the swatches first, stripping involves washing twice with a fragrance-free detergent and rinsing three times.
The BI scale contains one clean swatch with no malodor applied. […] These solutions are pipetted to the middle of the swatches. […] After drying for 30 minutes in a vented hood, the swatches are wrapped in aluminum foil to prevent odor contamination to the treated swatch. A clean untreated swatch is also included as the lowest anchor point of reference for malodor strength on the BI scale. The BI reference scale swatches should be used within 0.5 to 12 hours and discarded after 12 hours. The swatches are used as scale anchor points when graders evaluate a test sample(s) and are assigned a Blocker Index (BI) as show in Table 12.
The perfumer/expert grader is asked to rank order swatches according to a scale between 0 and 3.
The reference swatches represent the 0, 1, 2, and 3 BIs on the BI reference scale, Table 12. […]

Q: What does the source list for `CC(C)CC(=O)O` [isovaleric acid]?
A: BI grade of reference swatch, individual Expert Grader (stripped swatch with 2 μL 0.08% isovaleric acid): 2.0; BI grade of reference swatch, individual Expert Grader (stripped swatch with 5 μL 0.08% isovaleric acid): 2.0; BI grade of reference swatch, individual Expert Grader (stripped swatch with 20 μL 0.08% isovaleric acid): 3.0
